Reference: ChEMBL document CHEMBL4376871, “Synthesis and anti-cancer activity studies of dammarane-type triterpenoid derivatives” (Eur J Med Chem, 2020)
Active and inactive are the calls of the source. The rule behind the calls is not given here.

Experiments:
[1] = system: MGC-803; experiment: Antiproliferative activity against human MGC803 cells incubated for 48 hrs and measured after 4 hrs by MTT assay; assay type: functional, cell-based
[2] = system: PC-3; experiment: Antiproliferative activity against human PC3 cells incubated for 48 hrs and measured after 4 hrs by MTT assay; assay type: functional, cell-based
[3] = system: A549; experiment: Antiproliferative activity against human A549 cells incubated for 48 hrs and measured after 4 hrs by MTT assay; assay type: functional, cell-based
[4] = system: MCF7; experiment: Antiproliferative activity against human MCF7 cells incubated for 48 hrs and measured after 4 hrs by MTT assay; assay type: functional, cell-based
[5] = system: SGC-7901; experiment: Antiproliferative activity against human SGC7901 cells incubated for 48 hrs and measured after 4 hrs by MTT assay; assay type: functional, cell-based
[6] = Cytotoxicity against human IOSE-144 cells incubated for 48 hrs and measured after 4 hrs by MTT assay; assay type: cell-based
[7] = system: A549; experiment: Induction of apoptosis in human A549 cells assessed as nuclear condensation at 10 to 20 uM measured after 12 hrs by DAPI staining based fluorescence microscopic analysis; assay type: functional, cell-based
[8] = system: A549; experiment: Induction of apoptosis in human A549 cells assessed as appearance of fragmented apoptotic bodies at 10 to 20 uM measured after 12 hrs by DAPI staining based fluorescence microscopic analysis; assay type: functional, cell-based
[9] = system: A549; experiment: Induction of apoptosis in human A549 cells assessed as nuclear shrinkage at 10 to 20 uM measured after 12 hrs by DAPI staining based fluorescence microscopic analysis; assay type: functional, cell-based
[10] = system: SGC-7901; experiment: Potency index, ratio of IC50 for AD-2 to IC50 for test compound for antiproliferative activity against human SGC7901 incubated for 48 hrs and measured after 4 hrs by MTT assay; assay type: functional
[11] = system: PC-3; experiment: Potency index, ratio of IC50 for AD-2 to IC50 for test compound for antiproliferative activity against human PC3 incubated for 48 hrs and measured after 4 hrs by MTT assay; assay type: functional
[12] = system: MGC-803; experiment: Potency index, ratio of IC50 for AD-2 to IC50 for test compound for antiproliferative activity against human MGC803 incubated for 48 hrs and measured after 4 hrs by MTT assay; assay type: functional
[13] = system: A549; experiment: Potency index, ratio of IC50 for AD-2 to IC50 for test compound for antiproliferative activity against human A549 incubated for 48 hrs and measured after 4 hrs by MTT assay; assay type: functional
[14] = system: MCF7; experiment: Potency index, ratio of IC50 for AD-2 to IC50 for test compound for antiproliferative activity against human MCF7 incubated for 48 hrs and measured after 4 hrs by MTT assay; assay type: functional

Row | SMILES | IC50 [1] [µM] | IC50 [2] [µM] | IC50 [3] [µM] | IC50 [4] [µM] | IC50 [5] [µM] | IC50 [6] [µM] | Activity [7] | Activity [8] | Activity [9] | Ratio IC50 [10] | Ratio IC50 [11] | Ratio IC50 [12] | Ratio IC50 [13] | Ratio IC50 [14]
1 | CC(C)(O)CCC[C@@](C)(O)[C@H]1CC[C@]2(C)[C@@H]1[C@H](O)C[C@@H]1[C@@]3(C)C/C(=C\c4ccc(F)cc4F)[C@H](O)C(C)(C)[C@@H]3CC[C@]12C | 12.6 | 24.4 | 21.4 | 13.2 | 30.4 | > 100 |  |  |  |  |  |  |  | 
2 | CC(C)(O)CCC[C@@](C)(O)[C@H]1CC[C@]2(C)[C@@H]1[C@H](O)C[C@@H]1[C@@]3(C)C/C(=C\c4cccc(Br)c4)C(=O)C(C)(C)[C@@H]3CC[C@]12C | 13.6 | 14.1 | 34.7 | 12.2 | 20.6 | > 100 |  |  |  |  |  |  |  | 
3 | CC(C)(O)CCC[C@@](C)(O)[C@H]1CC[C@]2(C)[C@@H]1[C@H](O)C[C@@H]1[C@@]3(C)C/C(=C\c4ccc(C(F)(F)F)cc4)C(=O)C(C)(C)[C@@H]3CC[C@]12C | 26.2 | 36.8 | 48.4 | 15.5 | 29.1 | > 100 |  |  |  |  |  |  |  | 
4 | CC(C)(O)CCC[C@@](C)(O)[C@H]1CC[C@]2(C)[C@@H]1[C@H](O)C[C@@H]1[C@@]3(C)C/C(=C\c4ccc([N+](=O)[O-])cc4)C(=O)C(C)(C)[C@@H]3CC[C@]12C | 22.2 | 30.8 | 19.7 | 22.2 | 28.2 | > 100 |  |  |  |  |  |  |  | 
5 | CC(C)(O)CCC[C@@](C)(O)[C@H]1CC[C@]2(C)[C@@H]1[C@H](O)C[C@@H]1[C@@]3(C)C/C(=C\c4ccc(Br)cc4)C(=O)C(C)(C)[C@@H]3CC[C@]12C | 13.8 | 16.6 | 23.1 | 8.45 | 21.4 | > 100 |  |  |  |  |  |  |  | 
6 | CC(C)(O)CCC[C@@](C)(O)[C@H]1CC[C@]2(C)[C@@H]1[C@H](O)C[C@@H]1[C@@]3(C)CC[C@H](NC(=O)C4CCNCC4)C(C)(C)[C@@H]3CC[C@]12C | 25.5 | 34.1 | 20.3 | 25.2 | 32.4 | > 100 |  |  |  |  |  |  |  | 
7 | CC(C)(O)CCC[C@@](C)(O)[C@H]1CC[C@]2(C)[C@@H]1[C@H](O)C[C@@H]1[C@@]3(C)CC[C@H](OC(=O)C4CCCNC4)C(C)(C)[C@@H]3CC[C@]12C (stereo partly specified) | 12.5 | 13.1 | 5.44 | 14 | 12.1 | > 100 |  |  |  |  |  |  |  | 
8 | CC(C)(O)CCC[C@@](C)(O)[C@H]1CC[C@]2(C)[C@@H]1[C@H](O)C[C@@H]1[C@@]3(C)C/C(=C\c4cccc(F)c4)C(=O)C(C)(C)[C@@H]3CC[C@]12C | 13.3 | 49.5 | 55.6 | 14.8 | 31.8 | > 100 |  |  |  |  |  |  |  | 
9 | CC(C)(O)CCC[C@@](C)(O)[C@H]1CC[C@]2(C)[C@@H]1[C@H](O)C[C@@H]1[C@@]3(C)CC[C@H](OC(=O)C4CCCN(C(=O)OC(C)(C)C)C4)C(C)(C)[C@@H]3CC[C@]12C (stereo partly specified) | 22.2 | 23.6 | 22.2 | 26.7 | 22.3 | > 100 |  |  |  |  |  |  |  | 
10 | CC(C)(O)CCC[C@@](C)(O)[C@H]1CC[C@]2(C)[C@@H]1[C@H](O)C[C@@H]1[C@@]3(C)CC[C@H](NC(=O)C4CCN(C(=O)OC(C)(C)C)CC4)C(C)(C)[C@@H]3CC[C@]12C | 11.4 | 17.9 | 11.7 | 89.5 | 18.8 | > 100 |  |  |  |  |  |  |  | 
11 | CC(C)(O)CCC[C@@](C)(O)[C@H]1CC[C@]2(C)[C@@H]1[C@H](O)C[C@@H]1[C@@]3(C)C/C(=C\c4cccc([N+](=O)[O-])c4)C(=O)C(C)(C)[C@@H]3CC[C@]12C | 11.3 | 14.1 | 16.7 | 12.7 | 17.6 | > 100 |  |  |  |  |  |  |  | 
12 | CC(C)(O)CCC[C@@](C)(O)[C@H]1CC[C@]2(C)[C@@H]1[C@H](O)C[C@@H]1[C@@]3(C)C/C(=C\c4cccc(F)c4)[C@H](O)C(C)(C)[C@@H]3CC[C@]12C | 56.1 | > 100 | > 100 | > 100 | > 100 | > 100 |  |  |  |  |  |  |  | 
13 | CC(C)(O)CCC[C@@](C)(O)[C@H]1CC[C@]2(C)[C@@H]1[C@H](O)C[C@@H]1[C@@]3(C)C/C(=C\c4ccc([N+](=O)[O-])cc4)[C@H](O)C(C)(C)[C@@H]3CC[C@]12C | 23.2 | 58.1 | 34.2 | 49.4 | 47.2 | > 100 |  |  |  |  |  |  |  | 
14 | CC(C)(O)CCC[C@@](C)(O)[C@H]1CC[C@]2(C)[C@@H]1[C@H](O)C[C@@H]1[C@@]3(C)C/C(=C\c4cccc(Br)c4)[C@H](O)C(C)(C)[C@@H]3CC[C@]12C | 18.8 | > 100 | > 100 | > 100 | > 100 | > 100 |  |  |  |  |  |  |  | 
15 | CC(C)(O)CCC[C@@](C)(O)[C@H]1CC[C@]2(C)[C@@H]1[C@H](O)C[C@@H]1[C@@]3(C)CC[C@H](O)C(C)(C)[C@@H]3CC[C@]12C | 69.8 | 45.7 | 22.7 | 28.5 | 34 | > 100 | inactive | inactive | inactive |  |  |  |  | 
16 | CC(C)(O)CCC[C@@](C)(O)[C@H]1CC[C@]2(C)[C@@H]1[C@H](O)C[C@@H]1[C@@]3(C)CC[C@H](OC(=O)C4CCN(C(=O)OC(C)(C)C)CC4)C(C)(C)[C@@H]3CC[C@]12C | 22.2 | 25.8 | 10.8 | 11 | 18.2 | > 100 |  |  |  |  |  |  |  | 
17 | CC(C)(O)CCC[C@@](C)(O)[C@H]1CC[C@]2(C)[C@@H]1[C@H](O)C[C@@H]1[C@@]3(C)C/C(=C\c4ccc(F)cc4F)C(=O)C(C)(C)[C@@H]3CC[C@]12C | 9.32 | 13.1 | 12.6 | 8.32 | 11.2 | > 100 |  |  |  | 3 - 8 | 3 - 8 | 3 - 8 | 3 - 8 | 3 - 8
18 | CC(C)(O)CCC[C@@](C)(O)[C@H]1CC[C@]2(C)[C@@H]1[C@H](O)C[C@@H]1[C@@]3(C)C/C(=C\c4ccc(C(F)(F)F)cc4)[C@H](O)C(C)(C)[C@@H]3CC[C@]12C | > 100 | > 100 | 45.6 | > 100 | > 100 | > 100 |  |  |  |  |  |  |  | 
19 | CC(C)(O)CCC[C@@](C)(O)[C@H]1CC[C@]2(C)[C@@H]1[C@H](O)C[C@@H]1[C@@]3(C)CC[C@H](NC(=O)C4CCCNC4)C(C)(C)[C@@H]3CC[C@]12C (stereo partly specified) | 20.6 | 30.8 | 11.6 | 18.5 | 29.9 | > 100 |  |  |  |  |  |  |  | 
20 | CC(C)(O)CCC[C@@](C)(O)[C@H]1CC[C@]2(C)[C@@H]1[C@H](O)C[C@@H]1[C@@]3(C)C/C(=C\c4cccc([N+](=O)[O-])c4)[C@H](O)C(C)(C)[C@@H]3CC[C@]12C | > 100 | 75.2 | 44.9 | > 100 | > 100 | > 100 |  |  |  |  |  |  |  | 
21 | CC(C)(O)CCC[C@@](C)(O)[C@H]1CC[C@]2(C)[C@@H]1[C@H](O)C[C@@H]1[C@@]3(C)C/C(=C\c4ccc(Br)cc4)[C@H](O)C(C)(C)[C@@H]3CC[C@]12C | 26.1 | 16.5 | 38.6 | > 100 | > 100 | > 100 |  |  |  |  |  |  |  | 
22 | CC(C)(O)CCC[C@@](C)(O)[C@H]1CC[C@]2(C)[C@@H]1[C@H](O)C[C@@H]1[C@@]3(C)CC[C@H](N)C(C)(C)[C@@H]3CC[C@]12C | 13.8 | 34 | 7.68 | 13.3 | 53.1 | > 100 |  |  |  |  |  |  |  | 
23 | CC(C)(O)CCC[C@@](C)(O)[C@H]1CC[C@]2(C)[C@@H]1[C@H](O)C[C@@H]1[C@@]3(C)CC[C@H](NC(=O)C4CCCN(C(=O)OC(C)(C)C)C4)C(C)(C)[C@@H]3CC[C@]12C (stereo partly specified) | 16.8 | 23.1 | 23.5 | 21.2 | 18.1 | > 100 |  |  |  |  |  |  |  | 
